The values below come from ChEMBL document CHEMBL4138090, “4-Phenyl quinoline derivatives as potential serotonin receptor ligands with antiproliferative activity” (Eur J Med Chem, 2017).

Molecules are shown by their SMILES. Active and inactive are the calls of the source. The calls are words filed in the database; no cut-off is given here.

In data set [1] the test system is MCF7. In words: Induction of morphological changes in human MCF7 cells assessed as loss in cellular integrity at 5 uM after 72 hrs. It is filed as functional, cell-based.
Data set [2] has as its system MCF7. The data set is described as follows: Antiproliferative activity against human MCF7 cells at 5 uM after 72 hrs in presence of serotonin by MTT assay. It is filed as functional, cell-based. (In general: Formazan colour is commonly taken as a measure of viable cells.)
The subject of data set [3] is MCF7. The data set is described as follows: Cell cycle arrest in human MCF7 cells assessed as accumulation at sub-G0/G1 phase after 48 hrs by propidium iodide staining based flow cytometry. It is filed as functional. For orientation: Flow cytometry measures light scatter and fluorescence of single cells or particles in a stream.
The test system of data set [4] is MCF7. The data set is described as follows: Antiproliferative activity against human MCF7 cells after 72 hrs by MTT assay. In kind it is functional, cell-based. The following applies: MCF7, 72 h.
Data set [5] relates to MCF7. The data set is described as follows: Induction of apoptosis in human MCF7 cells assessed as early apoptotic cells at 5 uM after 48 hrs by Annexin V-FITC/propidium iodide staining based flow cytometry. It is filed as functional, cell-based.
For data set [6], the system named is MCF7. In words: Cell cycle arrest in human MCF7 cells assessed as accumulation at G1/S phase after 48 hrs by propidium iodide staining based flow cytometry. In kind it is functional.
The target of data set [7] is 5-hydroxytryptamine receptor 2A (Homo sapiens) (UniProt P28223). In words: Antagonist activity at 5-HT2A receptor in human MCF7 cells assessed as inhibition of serotonin-induced calcium flux at 5 uM measured at 5 secs time interval for 2 mins by Fluo-4AM dye based fluorescence microscopic analysis. In kind it is functional, cell-based. (Calcium assays in cells follow changes in intracellular calcium, usually with a dye or a luminescent sensor.)
5-hydroxytryptamine receptor 2A (Homo sapiens), sequence (P28223 whole entry): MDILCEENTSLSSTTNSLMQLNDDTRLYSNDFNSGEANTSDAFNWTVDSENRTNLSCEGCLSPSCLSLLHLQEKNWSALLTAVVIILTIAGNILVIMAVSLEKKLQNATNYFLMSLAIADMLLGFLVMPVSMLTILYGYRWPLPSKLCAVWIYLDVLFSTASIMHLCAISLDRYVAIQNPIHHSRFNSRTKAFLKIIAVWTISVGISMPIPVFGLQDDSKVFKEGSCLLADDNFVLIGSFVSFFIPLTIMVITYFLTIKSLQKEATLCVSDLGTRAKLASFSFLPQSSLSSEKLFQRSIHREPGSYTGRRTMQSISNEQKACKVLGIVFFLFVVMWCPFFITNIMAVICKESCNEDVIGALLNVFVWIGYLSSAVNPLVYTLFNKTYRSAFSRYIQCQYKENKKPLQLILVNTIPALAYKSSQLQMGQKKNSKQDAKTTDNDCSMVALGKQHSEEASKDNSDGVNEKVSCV

The test system of data set [8] is MCF7. In words: Antiproliferative activity against human MCF7 cells at 5 uM after 72 hrs by MTT assay. It is filed as functional, cell-based.
Data set [9] has as its target 5-hydroxytryptamine receptor 2A (Homo sapiens) (UniProt P28223). In words: Antagonist activity at 5-HT2A receptor in human MCF7 cells assessed as reduction in ERK1/2 phosphorylation at 5 uM after 24 to 48 hrs by Western blot analysis relative to control. In kind it is functional, cell-based.
Data set [10] can be described thus: Cytotoxicity against HEK293 cells assessed as reduction in cell viability after 72 hrs by MTT assay. In kind it is cell-based. The note with it: human, read-out: LD50.
Data set [11] deals with MCF7. In words: Induction of morphological changes in human MCF7 cells assessed as cell detachment at 5 uM after 72 hrs. It is filed as functional, cell-based.
Data set [12] deals with MCF7. In words: Induction of apoptosis in human MCF7 cells at 5 uM after 48 hrs by Annexin V-FITC/propidium iodide staining based flow cytometry. It is filed as functional, cell-based.
The subject of data set [13] is MCF7. In words: Cell cycle arrest in human MCF7 cells assessed as accumulation at G2/M phase after 48 hrs by propidium iodide staining based flow cytometry. It is filed as functional.

Consider `CCN1CCN(c2nc3ccccc3c(-c3ccccc3)c2C)CC1`, for which the outcome in data set [1], in data set [3], in [5], in data set [8], in data set [11] and in data set [12] was Active. The result in data set [2], in data set [6] and in [13] was inactive. In addition, the half-maximal inhibitory concentration (IC50) (in general, the midpoint of a concentration-inhibition curve) in [4] came out at 6.15 µM. For the same molecule, the inhibition (in general, how much of the control response was suppressed) in data set [7] is “Active”. Moreover, the inhibition in data set [9] is over 50%. The CC50 at 72 h in [10] was over 24 µM.
Regarding `CCN1CCN(c2nc3ccccc3c(-c3ccccc3)c2-c2ccccc2)CC1`, in data set [2], the outcome was inactive. Also, in data set [4], it took 7.48 µM to reach half-maximal inhibition (IC50). Moreover, the inhibition entry in [7] was “Active”. Further, the outcome in data set [8] was Active. In data set [10], the CC50 at 72 h is over 24 µM.
For `Cc1c(N2CCN(C)CC2)nc2ccccc2c1-c1ccccc1`, the inhibition entry in [7] is “Active”.
